The results in this text go back to US11427548B2 (Arvinas Operations, Inc., priority 2015, dated 2022).

Where two headings read alike, the source gives them in different places.

Usually Dmax stands for the greatest extent of degradation seen. By DC50 is commonly meant the concentration giving 50% degradation.

The test concerns the target T1, Androgen Receptor (Homo sapiens, UniProt P10275).
T1 construct: endogenous in cells; host or cells: VCaP cells
T1 sequence (P10275 1-920): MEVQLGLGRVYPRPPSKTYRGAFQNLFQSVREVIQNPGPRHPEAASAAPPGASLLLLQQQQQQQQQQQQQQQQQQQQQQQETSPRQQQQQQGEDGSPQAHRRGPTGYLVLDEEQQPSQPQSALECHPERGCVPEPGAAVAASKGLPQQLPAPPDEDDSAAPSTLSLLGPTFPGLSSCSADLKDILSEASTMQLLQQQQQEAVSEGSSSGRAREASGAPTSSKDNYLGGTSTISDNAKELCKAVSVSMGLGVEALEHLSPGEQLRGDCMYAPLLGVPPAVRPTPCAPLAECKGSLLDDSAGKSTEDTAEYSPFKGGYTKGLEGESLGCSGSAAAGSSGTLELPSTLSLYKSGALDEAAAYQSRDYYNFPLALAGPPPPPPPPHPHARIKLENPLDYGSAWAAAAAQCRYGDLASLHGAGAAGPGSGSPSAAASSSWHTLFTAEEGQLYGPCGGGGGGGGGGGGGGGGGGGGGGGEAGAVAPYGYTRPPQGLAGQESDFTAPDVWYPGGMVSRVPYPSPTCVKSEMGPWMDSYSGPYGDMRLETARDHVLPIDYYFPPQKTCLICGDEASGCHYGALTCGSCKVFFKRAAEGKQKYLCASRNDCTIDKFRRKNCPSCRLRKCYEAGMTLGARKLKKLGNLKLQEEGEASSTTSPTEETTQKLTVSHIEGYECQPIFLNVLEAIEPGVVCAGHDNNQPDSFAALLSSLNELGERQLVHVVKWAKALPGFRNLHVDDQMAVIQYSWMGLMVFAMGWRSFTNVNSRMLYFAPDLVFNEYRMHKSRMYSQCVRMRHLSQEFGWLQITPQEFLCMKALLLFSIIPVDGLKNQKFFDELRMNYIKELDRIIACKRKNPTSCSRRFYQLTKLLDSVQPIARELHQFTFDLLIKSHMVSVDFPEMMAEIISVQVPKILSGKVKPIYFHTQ
Briefly: Androgen Receptor ELISA assay (PathScan AR ELISA) in VCaP cells: AR degradation, Dmax and DC50. The format is cell-based. Summed up:
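VCaP cells, 30,000/well, grown ≥3 days in phenol red-free RPMI with 5% charcoal-stripped FBS; compound added in 0.1% DMSO with 0.1 nM R1881, 7 half-log doses, 24 h. Lysate AR quantified by PathScan sandwich ELISA, HRP/TMB read at 450 nm, giving DC50 and Dmax.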

Setting [1] is: read-out: VCaP DC50; VCaP cells; Table 35.
Where [2] appears, read: VCaP cells; Table 35; read-out: VCaP DC50.
The mark [3] stands for this setting: VCaP, VCaP cells; Table 35; read-out: VCaP Dmax (%).
Setting [4] is: VCaP cells; Table 36; read-out: VCaP DC50.
The mark [5] stands for this setting: VCaP, VCaP cells; Table 36; read-out: VCaP Dmax (%).
Where [6] appears, read: read-out: VCaP DC50; VCaP cells; Table 36.

With `Cc1ncsc1-c1ccc(CNC(=O)[C@@H]2C[C@@H](O)CN2C(=O)[C@@H](NC(=O)COC[C@H](O)[C@@H](O)COc2ccc(-c3ccc(N4C(=S)N(c5ccc(C#N)c(C(F)(F)F)c5)C(=O)C4(C)C)cc3)cc2)C(C)(C)C)cc1` [Example 567], under “VCaP, read-out: VCaP Dmax (%)”, the Dmax was over 71%. Besides, under setting [1], the DC50 was under 50 nM.
As to `CC(C)(C)[C@H](NC(=O)COCCCCOc1ccc(C(=O)N[C@H]2C(C)(C)[C@H](Oc3ccc(C#N)c(Cl)c3)C2(C)C)cc1)C(=O)N1C[C@H](O)C[C@H]1C(=O)NCc1ccc(-n2cccn2)cc1` [Example 568], the DC50 under setting [2] was under 50 nM. The Dmax under setting [3] is over 71%.
As for `C[C@H](NC(=O)[C@@H]1C[C@@H](O)CN1C(=O)[C@@H](NC(=O)COCCCCOc1ccc(C(=O)N[C@H]2C(C)(C)[C@H](Oc3ccc(C#N)c(Cl)c3)C2(C)C)cc1)C(C)(C)C)c1ccc(-c2ncon2)cc1` [Example 569], the DC50 under setting [2] is under 50 nM. Under setting [3], the Dmax was over 71%.
In the same order, the values of `C[C@H](NC(=O)[C@@H]1C[C@@H](O)CN1C(=O)[C@@H](NC(=O)COCCCCOc1ccc(C(=O)N[C@H]2C(C)(C)[C@H](Oc3ccc(C#N)c(Cl)c3)C2(C)C)cc1)C(C)(C)C)c1ccc(-c2nncs2)cc1` [Example 570] are under 50 nM and over 71%.
In the same order, the values of `CC(C)(C)[C@H](NC(=O)COCCCCOc1ccc(-c2ccc(N3C(=S)N(c4cnc(C#N)c(C(F)(F)F)c4)C(=O)C3(C)C)cc2)cc1)C(=O)N1C[C@H](O)C[C@H]1C(=O)NCc1ccc(C#N)cc1` [Example 571] are under 50 nM and over 71%.
Consider `C[C@H](NC(=O)[C@@H]1C[C@@H](O)CN1C(=O)[C@@H](NC(=O)COCCCCOc1ccc(C(=O)N[C@H]2C(C)(C)[C@H](Oc3ccc(C#N)c(Cl)c3)C2(C)C)cc1)C(C)(C)C)c1ccc(Cl)cc1` [Example 572], for which the DC50 under setting [2] was under 50 nM. For the same molecule, the Dmax under setting [3] is over 71%.
In the same order, the values of `CC(C)(C)[C@H](NC(=O)COCCOc1ccc(-c2ccc(C(=O)N[C@H]3C(C)(C)[C@H](Oc4ccc(C#N)c(Cl)c4)C3(C)C)cc2)cc1)C(=O)N1C[C@H](O)C[C@H]1C(=O)NCc1ccc(Cl)cc1` [Example 573] are over 501 nM and 51 to 70%.
Consider `Cc1ncsc1-c1ccc([C@H](C)NC(=O)[C@@H]2C[C@@H](O)CN2C(=O)[C@@H](NC(=O)COC[C@@H](O)[C@H](O)COc2ccc(-c3ccc(N4C(=S)N(c5ccc(C#N)c(C(F)(F)F)c5)C(=O)C4(C)C)cc3)cc2)C(C)(C)C)cc1` [Example 574], for which the Dmax (VCaP, read-out: VCaP Dmax (%)) was over 71%. Besides, under setting [1], the DC50 was under 50 nM.
Regarding `Cc1ncsc1-c1ccc([C@H](C)NC(=O)[C@@H]2C[C@@H](O)CN2C(=O)[C@@H](NC(=O)COC[C@@H](O)CCOc2ccc(-c3ccc(N4C(=S)N(c5ccc(C#N)c(C(F)(F)F)c5)C(=O)C4(C)C)cc3)cc2)C(C)(C)C)cc1` [Example 575], the Dmax (VCaP, read-out: VCaP Dmax (%)) is over 71%. For the same molecule, the DC50 under setting [1] is under 50 nM.
In the same order, the values of `Cc1ncsc1-c1ccc([C@H](C)NC(=O)[C@@H]2C[C@@H](O)CN2C(=O)[C@@H](NC(=O)COC[C@H](O)CCOc2ccc(-c3ccc(N4C(=S)N(c5ccc(C#N)c(C(F)(F)F)c5)C(=O)C4(C)C)cc3)cc2)C(C)(C)C)cc1` [Example 576] are over 71% and under 50 nM.
Consider `Cc1ncsc1-c1ccc(CNC(=O)[C@@H]2C[C@@H](O)CN2C(=O)[C@@H](NC(=O)COC[C@H](O)[C@@H](O)COc2ccc(C(=O)N[C@H]3C(C)(C)[C@H](Oc4ccc(C#N)c(Cl)c4)C3(C)C)cc2)C(C)(C)C)cc1` [Example 577], for which the DC50 under setting [2] is under 50 nM. For the same molecule, under setting [3], the Dmax was over 71%.
With `Cc1ncsc1-c1ccc([C@H](C)NC(=O)[C@@H]2C[C@@H](O)CN2C(=O)[C@H](C(C)C)n2cc(-c3ccnc(OC4CN(c5ccc(C(=O)N[C@H]6C(C)(C)[C@H](Oc7ccc(C#N)c(Cl)c7)C6(C)C)cn5)C4)c3)cn2)cc1` [Example 594, N-((1r,3r)-3-(3-chloro-4-cyanophenoxy)-2,2,,4-tetramethylcyclobutyl)-6-(3-((4-(1-((S)-1-((2S,4R)-4-hydroxy-2-(((S)-1-(4-(4-methylthiazol-5-yl)phenyl)ethyl)carbam-oyl)pyrrolidin-1-yl)-3-methyl-1-oxobutan-2-yl)-1H-pyrazol-4-yl)pyridin-2-yl)oxy)azetidin-1-yl)nicotinamide], the DC50 under setting [4] was over 501 nM. The Dmax under setting [5] was under 25%.
Regarding `Cc1ncsc1-c1ccc([C@H](C)NC(=O)[C@@H]2C[C@@H](O)CN2C(=O)[C@@H](C(C)C)n2cc(-c3ccnc(OC4CN(c5ccc(C(=O)N[C@H]6C(C)(C)[C@H](Oc7ccc(C#N)c(Cl)c7)C6(C)C)cn5)C4)c3)cn2)cc1` [Example 595, N-((1r,3r)-3-(3-chloro-4-cyanophenoxy)-2,2,4,4-tetramethylcyclobutyl)-6-(3-((4-(1-((R)-1-((2S,4R)-4-hydroxy-2-(((S)-1-(4-(4-methylthiazol-5-yl)phenyl)ethyl)carbam-oyl)pyrrolidin-1-yl)-3-methyl-1-oxobutan-2-yl)-1H-pyrazol-4-yl)pyridin-2-yl)oxy)azetidin-1-yl)nicotinamide], the DC50 under setting [4] was under 50 nM. The Dmax under setting [5] lay in the range of 51 to 70%.
Consider `Cc1ncsc1-c1ccc([C@H](C)NC(=O)[C@@H]2C[C@@H](O)CN2C(=O)[C@H](C(C)C)n2cc(-c3ccnc(N4CC[C@@H](Nc5ccc(C(=O)N[C@H]6C(C)(C)[C@H](Oc7ccc(C#N)c(Cl)c7)C6(C)C)cc5)C4)c3)cn2)cc1` [Example 596, (2S,4R)-1-((S)-2-(4-(2-((R)-3-((4-(((1r,3R)-3-(3-chloro-4-cyanophenoxy)-2,2,4,4-tetramethylcyclobutyl)carbamoyl)phenyl)amino)pyrrolidin-1-yl)pyridin-4-yl)-1H-pyrazol-1-yl)-3-methylbutanoyl)-4-hydroxy-N-((S)-1-(4-(4-methylthiazol-5-yl)phenyl)ethyl)pyrroli-dine-2-carboxamide], for which the DC50 under setting [4] is over 501 nM. Further, the Dmax under setting [5] was in the range of 26 to 50%.
For `Cc1ncsc1-c1ccc([C@H](C)NC(=O)[C@@H]2C[C@@H](O)CN2C(=O)[C@@H](C(C)C)n2cc(-c3ccnc(N4CC[C@@H](Nc5ccc(C(=O)N[C@H]6C(C)(C)[C@H](Oc7ccc(C#N)c(Cl)c7)C6(C)C)cc5)C4)c3)cn2)cc1` [Example 597, (2S,4R)-1-((R)-2-(4-(2-((R)-3-((4-(((1r,3R)-3-(3-chloro-4-cyanophenoxy)-2,2,4,4-tetramethylcylcobutyl)carbamoyl)phenyl)amino)pyrrolidin-1-yl)pyridin-4-yl)-1H-pyrazol-1-yl)-3-methylbutanoyl)-4-hydroxy-N-((S)-1-(4-(4-methylthiazol-5-yl)phenyl)ethyl)pyrroli-dine-2-carboxamide], in that order: over 501 nM and under 25%.
Take `Cc1ncsc1-c1ccc(CNC(=O)[C@@H]2C[C@@H](O)CN2C(=O)[C@H](C(C)C)n2cc(OC3CCN(c4ccc(-c5ccc(N6C(=S)N(c7ccc(C#N)c(C(F)(F)F)c7)C(=O)C6(C)C)cc5)cn4)CC3)cn2)cc1` [Example 598, 1-(2-(4-((1-(5-(4-(3-(4-cyano-3-(trifluoromethyl)phenyl)-5,5-dimethyl-4-oxo-2-thioxoimidazolidin-1-yl)phenyl)pyridin-2-yl)piperidin-4-yl)oxy)-1H-pyrazol-1-yl)-3-mehtylbutanoyl)-4-hydroxy-N-(4-(4-methylthiazol-5-yl)benzyl)pyrrolidine-2-carboxamide]: where the note is “VCaP, read-out: VCaP Dmax (%)”, the Dmax was 26 to 50%. The DC50 under setting [6] is over 501 nM.
In the same order, the values of `Cc1ncsc1-c1ccc(CNC(=O)[C@@H]2C[C@@H](O)CN2C(=O)[C@@H](C(C)C)n2cc(OC3CCN(c4ccc(-c5ccc(N6C(=S)N(c7ccc(C#N)c(C(F)(F)F)c7)C(=O)C6(C)C)cc5)cn4)CC3)cn2)cc1` [Example 599, (2S,4R)-1-((R)-2-(4-((1-(5-(4-(3-(4-cyano-3-(trifluoromethyl)phenyl)-5,5-dimethyl-4-oxo-2-thioxoimidazolidin-1-yl)phenyl)pyridin-2-yl)piperidin-4-yl)oxy)-1H-pyrazol-1-yl)-3-methylbutanoyl)-4-hydroxy-N-(4-(4-methylthiazol-5-yl)benzyl)pyrrolidine-2-carboxamide] are 26 to 50% and over 501 nM.
